100 compounds from PubChem BioAssay AID1117361 (Southern Research Institute, 2015) can be followed below.

Structures are written as SMILES.

In the experiment the target is Protein Tat (Human immunodeficiency virus type 1 group M subtype B (isolate HXB2)) (UniProt P04608). The experiment in a line: HIV-1 Tat–TAR interaction blockers – biochemical, fluorescence polarization, FAM-labeled TAR RNA, counter-screen for Vif-APOBEC3G degradation inhibitor project, dose response (AID 1117361). The following applies: Tat-TAR RNA binding. On the technique in general: Polarisation of emitted light reports the rotation of a fluorescent probe.
Protein Tat (Human immunodeficiency virus type 1 group M subtype B (isolate HXB2)), sequence (P04608 whole entry, looked up): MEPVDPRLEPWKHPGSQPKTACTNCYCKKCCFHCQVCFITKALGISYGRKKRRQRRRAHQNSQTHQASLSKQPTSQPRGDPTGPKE
By IC50 is commonly meant the concentration at which inhibition is half-maximal. Turning to `CCOC(=O)C1CCCN(C(=O)c2ccc(CNc3c(N4CCC(C)CC4)c(=O)c3=O)cc2)C1` (stereo not given), the IC50 was 65.3 µM. Turning to `O=C(O)C1Nc2c(Cl)cc(Cl)cc2C2C=CCC12` (stereo not given), the IC50 was 94.4 µM.

`Cc1cc(C)cc(NC(=O)CSc2nc3c(c(=O)n2C)SC(C)C3)c1` (stereo not given): the IC50 was 56.9 µM.

Consider `O=C(NN1C(=O)/C(=C/C=C/c2ccco2)SC1=S)c1ccccc1O`, for which the half-inhibitory concentration (IC50) is 4.46 µM. `O=C(NCCc1ccccc1)c1ccc2nc(-c3ccco3)c(-c3ccco3)nc2c1`: the IC50 was 33.1 µM. Then `CCOc1cccc(=O)c2c(C)n(-c3ccc(C(=O)O)cc3)c(C)c12`, with 3.3 µM; and `Cc1ccc(S(=O)(=O)OCC(=O)Nc2ccc(C(=O)O)c(O)c2)cc1`, with 75.3 µM. Then `COC(=O)/C(=N/Nc1ccccc1C)N1CCCc2ccccc21`, with 29.2 µM; and `NN=C1C(Cl)=C(Cl)C(Cl)=C1Cl`, with 62.9 µM.

Take `O=C(N/N=C/C=C/c1ccco1)c1ccncc1`: the IC50 is 10.2 µM.

As for `O=C(O)c1[nH]c2ccc(Cl)cc2c1CC(=O)N1CCN(C(=O)c2ccco2)CC1`, the IC50 was 69.5 µM. Then `CCOC(=O)c1ccc(NS(=O)(=O)c2ccc3c(c2)oc(=O)n3C)cc1`, with 0.996 µM; and `CCC(=O)N1N=C(c2ccc(NS(C)(=O)=O)cc2)CC1c1ccc(C)cc1` (stereo not given), with 88.8 µM; and `O=C1/C(=C/c2ccco2)SC(=S)N1C1CCS(=O)(=O)C1` (stereo not given), with 5.05 µM. Then `CC1=CC2(O)OCCN(CCO)C2=CC1=O` (stereo not given), with 34.5 µM. As for `COc1ccc(Nc2ccc(OC)cc2)cc1`, the figure is 23.2 µM; as for `CC(C(=O)O)N1C(=O)/C(=C/C=C/c2ccco2)SC1=S` (stereo not given), 1.54 µM; as for `Cc1nn(-c2ccccn2)c2c1C(=O)C(Br)CC2` (stereo not given), 8.82 µM. `COc1ccc(NC(=O)c2cc(-c3ccco3)nc3ccccc23)cc1S(=O)(=O)N1CCOCC1`: the IC50 was 19.3 µM. For the compound `O=C(CCS(=O)(=O)c1ccc(Br)cc1)NC1CCCC1`, the IC50 is 50.8 µM. Then `COC1=C(N)C(=O)c2nc(-c3nc(C(=O)O)c(C)c(-c4ccc(OC)c(OC)c4O)c3N)ccc2C1=O`, with 42.1 µM. As for `Cc1cnnc2ccc3c(no[n+]3[O-])c12`, the figure is 36.5 µM; as for `O=C1NC(=O)N(Cc2ccco2)C(=O)/C1=C/C=C/c1ccco1`, 1.95 µM. As for `O=C(O)c1ccc2c(c1)[C@@H]1C=CC[C@@H]1[C@H](c1ccccn1)N2`, the figure is 7.1 µM. On to `O=[N+]([O-])c1cc2ccccc2c(O)c1O`, for which the IC50 is 56.8 µM. Then `Fc1ccccc1/C=C1\CCCC2=C1Nc1ncnn1C2c1ccccc1F` (stereo not given), with 23.7 µM; and `Cc1ccc(C(=O)N/N=C\c2cc(Br)c(Br)o2)cn1`, with 2.34 µM. Consider `Cc1cc(C(=O)NCCCN2CCCC2=O)no1`, for which the IC50 is 24 µM. As for `N#C/C(=C/c1ccc(Br)o1)C(N)=S`, the figure is 16 µM; as for `Cc1oc(-c2ccc(Cl)cc2)cc1-c1nn2c(-c3ccoc3C)nnc2s1`, 2.87 µM. As for `NS(=O)(=O)c1ccc2c(c1)C1C=CCC1C(C1CC=CCC1)N2` (stereo not given), the figure is 9.98 µM; as for `CC(=O)OC1COC(n2ccc3ccccc32)C(OC(C)=O)C1OC(C)=O` (stereo not given), 88.1 µM. As for `O=C1CC(Nc2ccc(N3CCOCC3)cc2)C(=O)N1Cc1ccccc1` (stereo not given), the figure is 15.4 µM; as for `Cc1sc2ncnc(SCc3ccco3)c2c1C`, 17.6 µM. Take `O=C(O)C1Nc2c(O)cc(Cl)c([N+](=O)[O-])c2C2C=CCC12` (stereo not given): the IC50 is 1.64 µM. As for `CNc1ccc(Br)cc(C(=O)/C=C/c2cc(OC)ccc2OC)c1=O`, the figure is 9.75 µM; as for `Cc1ccc(-c2c3c([nH]c(=S)c2C#N)CCCC3)o1`, 21.2 µM.

With `N=C1S/C(=C\c2ccco2)C(=O)N1c1ccc2c(c1)OCO2`, the half-maximal inhibitory concentration (IC50) was 18.4 µM. As for `O=C(O)C1Nc2ccc(Br)cc2C2C=CCC12` (stereo not given), the figure is 3.73 µM; as for `CCOC(=O)c1ccc(CC(=O)c2ccc(O)c(O)c2O)o1`, 74 µM; as for `CC(=O)c1ccc(NC(=O)CSc2nnc(-c3ccco3)c(-c3ccco3)n2)cc1`, 6.61 µM. As for `Cc1cccc(-n2c(Cc3cc(=O)[nH]c(=O)[nH]3)nnc2SC(C)C)c1`, the figure is 28.2 µM; as for `O=C1NN(c2ccc(Cl)cc2)C(=O)/C1=C\c1ccc(-c2cccc(C(=O)O)c2)o1`, 23.4 µM; as for `O=C(Nc1ccc2nc(-c3ccco3)c(-c3ccco3)nc2c1)NC1CC1`, 1.83 µM.

For the compound `CCNC(=O)COC(=O)c1cc(-c2ccco2)nc2ccccc12`, the IC50 was 8.09 µM. Consider `Cc1oc(C)c2c(=O)ccc3c(c12)OC(N)=C(C#N)C3c1ccccc1` (stereo not given), for which the IC50 was 81.9 µM. Then `CCc1cc2cc(C)cc(C)c2nc1SCC(=O)N1CCN(C(=O)c2ccco2)CC1`, with 39.3 µM; and `CC(C)N1CCC2(CC1)C(C#N)=C(N)NC(S)=C2C#N`, with 47.6 µM. As for `C=C(C)C(=O)Nc1cccc(C2=NOC3(C2)C[C@H](C(N)=O)N(C(=O)COc2ccc(Cl)cc2)C3)c1` (stereo not given in full), the figure is 17.3 µM; as for `O=C(O)C1=NN(c2cc(Cl)c(S(=O)(=O)O)cc2Cl)C(=O)C1`, 30.9 µM; as for `N#C/C(=C/c1ccc(N2CCCCCC2)o1)c1cccc(F)c1`, 98.4 µM.

As for `COCCNC(=O)Nc1ccc2nc(-c3ccco3)c(-c3ccco3)nc2c1`, the IC50 was 2.17 µM. Then `O=C1NC(=S)SC1=C1CCCC1`, with 6.59 µM; and `CC1CCN(S(=O)(=O)c2ccc(C(=O)NCc3ccc4c(c3)OCO4)cc2)CC1`, with 95.7 µM. Then `CCOc1ccc2[nH]c(=O)c(CN(Cc3nnnn3Cc3ccco3)C3CCCCC3)cc2c1`, with 24.9 µM; and `O=C1/C(=C/c2ccco2)SC(=S)N1c1cccnc1`, with 3.9 µM; and `N=C1/C(=C\c2ccc(SCc3ccco3)o2)C(=O)N=C2SC=NN12`, with 2.49 µM. Take `CCN(CC)c1ccc2oc(=O)c(C)nc2c1`: the IC50 was 20.2 µM. Then `Brc1c(CSc2nnc(-c3ccco3)o2)nc2ccccn12`, with 23.9 µM; and `Cc1ccc(C(=O)C2=C(O)C(=O)N(c3ncccn3)C2c2ccc(F)cc2)o1` (stereo not given), with 82.7 µM; and `CC1=CC(C)(C)Nc2ccc(OC(=O)CN3C(=O)c4cccc5cccc(c45)C3=O)cc21`, with 15.3 µM. As for `Cc1cccc(/C=C(\C(=O)O)c2ccc(S(=O)(=O)N3CCCC3)s2)c1`, the figure is 98 µM; as for `O=C1NC(=O)C(=Cc2ccc(SC3CCCCC3)o2)C(=O)N1`, 30.9 µM.

Take `CC1=C(C(=O)Nc2ccccc2F)C(c2ccsc2)C2=C(CC(c3ccccc3)CC2=O)N1` (stereo not given): the IC50 is 4.06 µM. As for `CC1=CC(=Nc2c(C)n(C)n(-c3ccccc3)c2=O)C=CC1=O`, the figure is 14.5 µM; as for `Cc1ccc(NC(=O)CN(C)C(=O)c2cc(-c3ccco3)nc3ccccc23)cc1`, 69.2 µM; as for `CCCCNC(=O)c1ccc2nc(-c3ccco3)c(-c3ccco3)nc2c1`, 6.84 µM. Consider `O=S(=O)(O)c1cc(Cl)cc(N=Nc2ccc(O)cc2O)c1O`, for which the 50% inhibitory concentration (IC50) is 22.5 µM. On to `CC(C)C1Nc2ccc(C(=O)O)cc2C2C=CCC21` (stereo not given), for which the IC50 is 4.93 µM. As for `CN1C(=O)/C(=C/c2ccco2)SC1=Nc1cccc(C(=O)O)c1`, the figure is 7.93 µM; as for `O=C(O)c1ccc(COc2c(F)c(F)c(F)c(F)c2F)o1`, 90.6 µM. In the case of `O=[N+]([O-])c1cc2oc3c(c2c(C=NCc2ccncc2)c1O)CCCC3`, the 50% inhibitory concentration (IC50) was 13.4 µM. Then `N#Cc1c(-c2ccco2)cc(-c2ccccc2)[nH]c1=O`, with 5 µM; and `O=C(NCc1ccccc1Cl)c1csc2c1CCCCC2`, with 27.2 µM. Then `COCCn1nnnc1C(c1cc2cc(OC)c(OC)cc2[nH]c1=O)N1CCN(c2ccc(O)cc2)CC1` (stereo not given), with 94.3 µM; and `COCCNC(=O)COC(=O)c1[nH]c(C)c(C(C)=O)c1C`, with 35.4 µM; and `CCOc1cccc(CNCCNC(=O)c2nonc2N)c1`, with 84.2 µM. Regarding `O=C(Nc1nc(-c2ccco2)c(-c2ccco2)s1)C1CCC1`, the IC50 is 2.65 µM. For the compound `O=C(NC1CC1)c1cc(-c2ccco2)nc2ccccc12`, the 50% inhibitory concentration (IC50) is 9.27 µM. As for `Cc1ccc(/C=C2\SC(=S)N(c3cccnc3)C2=O)o1`, the figure is 5.44 µM; as for `Cc1ccccc1NC(=O)CSc1nnc(-c2ccco2)c(-c2ccco2)n1`, 2.73 µM. Then `CN(CCc1ccccc1)C(=O)c1ccc(NC(=O)Cc2ccc(NC(=O)C3CCN(C(=O)CCc4ccccc4)CC3)cc2)cc1`, with 44.3 µM; and `CCOC(=O)c1c(N)sc(=S)c2c1CCC2`, with 52 µM. Then `Cc1nc2c(=O)[nH]c(=S)[nH]c2[nH]c1=O`, with 13.2 µM; and `Cc1cc(NC(=O)Cc2cccs2)no1`, with 55.9 µM. Regarding `CN(C(=S)Nc1cccnc1)c1ccc(O)cc1`, the IC50 is 27 µM. As for `O=C(c1ccc2nc(-c3ccco3)c(-c3ccco3)nc2c1)N1CCC2(CC1)OCCO2`, the figure is 4.26 µM; as for `CCN(CC)C(=O)c1ccc(CS(=O)(=O)c2ccc(OC)cc2)o1`, 2.35 µM; as for `Cc1cccc(NC(=O)CNC(=O)c2cccc(-n3cccc3)c2)c1C`, 63.3 µM.

For the compound `Cc1ccc(-n2nc(C)c(C3C(C#N)=C(N)Oc4c3c(=O)oc3ccccc43)c2Cl)cc1` (stereo not given), the IC50 is 25.2 µM. Then `CCCc1cc(=O)oc2cc(C)c(CN3CCCC3)c(O)c12`, with 16.9 µM. Take `O=C(O)c1ccc2c(c1)C1C=CCC1C(c1ccncc1)N2` (stereo not given): the IC50 was 6.37 µM. As for `O=C(O)CCCNc1cc(N2CCC3(CC2)OCCO3)c2noc3c2c1C(=O)c1ccccc1-3`, the figure is 3.59 µM; as for `COc1cccc(=O)c2c(C)n(-c3ccc(C(=O)O)cc3)c(C)c12`, 3.06 µM. Then `O=c1cc2c(=O)oc3cc(O)c(O)oc3c2c(O)c1O`, with 12.3 µM. As for `Cc1ccc[n+](-c2[nH]c(=O)sc2/C=N/NC(=O)c2ccccc2[O-])c1`, the figure is 22.1 µM. Turning to `CCOC(=O)C1=C(N)n2c(s/c(=C\c3ccco3)c2=O)=C(C(=O)OC(C)C)C1c1ccco1` (stereo not given), the IC50 was 3.45 µM. Take `O=C1c2cccnc2C(Nc2ccccc2)N1Cc1ccco1` (stereo not given): the IC50 is 79.2 µM. Then `Cc1ccc(C(=O)Nc2ccc(O)c(C(=O)O)c2)o1`, with 19.4 µM; and `CC1CCN(Cc2c(O)ccc3c2O/C(=C\c2ccco2)C3=O)CC1`, with 4.79 µM.
